Experimental data taken from US20200261484A1, “INHIBITION OF AUTISM SPECTRUM DISORDER USING RIBOSOMAL READ-THROUGH COMPOUNDS” (Friedrich Miescher Inst. for Biomedical Research, priority 2017, published 2020).

Tested on: Adnp-PTC718 expressing cells
Test: Streptavidin purification and LC-MS/MS of FLAG/Avi-tagged Adnp-PTC718 from cells with and without aminoglycoside treatment (stop codon read-through, ChAHP complex formation)
Type: cell-based, mouse
Details: Adnp-PTC718 expressing cells treated with 2 mg/ml gentamycin (2.9 mM) or paromomycin (3.2 mM) for 24 hours; LC-MS/MS of streptavidin-purified Adnp-PTC718
Method: FLAG/Avi-tagged Adnp-PTC718 was streptavidin purified from cells with and without aminoglycoside treatment and subjected to LC-MS/MS analysis. Adnp-PTC718 expressing cells were treated with 2 mg/ml gentamycin (2.9 mM) or paromomycin (3.2 mM) for 24 hours. The table depicts total spectral counts, unique peptides and percent sequence coverage for all ChAHP components from the different treatments.
Cells were grown to confluency on 10 cm dish, collected in PBS, and pelleted by 2 min centrifugation at 400 g. All subsequent steps were performed on ice or at 4 C. Pellets were resuspended in 3 ml of Nuclear extract buffer 1 (NEB1: 20 mM HEPES, 10 mM KCl, 1 mM EDTA, 0.1 mM Na3VO4, 0.2% NP-40, 10% glycerol, 1 mM DTT, 1×PIC) followed by centrifugation at 1000 g for 3 min. […] Protein concentration was determined using Bradford assay, and approximately 250 µg of nuclear extracts were used per affinity purification. […] The generated peptides were acidified with TFA to a final concentration of 0.8% and analyzed by capillary liquid chromatography tandem mass spectrometry with an EASY-nLC 1000 using the two-column set-up (Thermo Scientific). […] Protein identification and relative quantification of the proteins was done with MaxQuant version 1.5.3.8 using Andromeda as search engine^33 and label free quantification (LFQ.^34) as described in^35. […]

## NC[C@@H]1O[C@H](O[C@H]2[C@@H](O)[C@H](O[C@@H]3[C@@H](O)[C@H](N)C[C@H](N)[C@H]3O[C@H]3O[C@H](CO)[C@@H](O)[C@H](O)[C@H]3N)O[C@@H]2CO)[C@H](N)[C@@H](O)[C@@H]1O [paromomycin]
  formation of the ChAHP complex (stop codon read-through): restore the formation of the ChAHP complex

## gentamycin
  formation of the ChAHP complex (stop codon read-through): restore the formation of the ChAHP complex
